The source of these data is patent US20090036466A1, “AMINO-BENZIMIDAZOLES DERIVATIVES AS INHIBITORS OF RESPIRATORY SYNCYTIAL VIRUS REPLICATION” (priority 2003, published 2009).

Structures can show the parent of a compound that is named as a salt.

The test system of the first data set is Respiratory Syncytial Virus. Briefly: microbe, parasite or virus in culture. Type of data set: cell-based. Conditions: human respiratory syncytial virus, 168 h; protection against RSV cytopathology in HeLa cells, MTT read-out seven days after infection; pEC50 = -log of EC50 in molar units. On the procedure: The percent protection against cytopathology caused by viruses (antiviral activity or EC50) achieved by tested compounds and their cytotoxicity (CC50) are both calculated from dose-response curves.
Automated tetrazolium-based […] assays were used for determination of EC50 and CC50 of test compounds. Flat-bottom, 96-well plastic microtiter trays were filled with 180 μl of Eagle's Basal Medium, supplemented with 5% FCS (0% for FLU) and 20 mM Hepes buffer. Subsequently, stock solutions (7.8× final test concentration) of compounds were added in 45 μl volumes to a series of triplicate wells so as to allow simultaneous evaluation of their effects on virus- and mock-infected cells. Five five-fold dilutions were made directly in the microtiter trays using a robot system. Untreated virus controls, and HeLa cell controls were included in each test. Approximately 100 TCID50 of Respiratory Syncytial Virus was added to two of the three rows in a volume of 50 μl. The same volume of medium was added to the third row to measure the cytotoxicity of the compounds at the same concentrations as those used to measure the antiviral activity. After two hours of incubation, a suspension (4×10^5 cells/ml) of HeLa cells was added to all wells in a volume of 50 μl. The cultures were incubated at 37° C. in a 5% CO2 atmosphere. Seven days after infection the cytotoxicity and the antiviral activity was examined spectrophotometrically. To each well of the microtiter tray, 25 μl of a solution of MTT (3-(4,5-dimethylthiazol-2-yl)-2,5-diphenyltetrazolium bromide) was added. The trays were further incubated at 37° C. for 2 hours, after which the medium was removed from each cup. Solubilization of the formazan crystals was achieved by adding 100 μl 2-propanol. Complete dissolution of the formazan crystals were obtained after the trays have been placed on a plate shaker for 10 min. Finally, the absorbances were read in an eight-channel computer-controlled photometer (Multiskan MCC, Flow Laboratories) at two wavelengths (540 and 690 nm). The absorbance measured at 690 nm was automatically subtracted from the absorbance at 540 nm, so as to eliminate the effects of non-specific absorption.
What is called EC50 is the concentration needed to bring the measured effect to its halfway point. For `Cc1cc(C)c2nc(NCCCO)n(Cc3nc(C)ccc3O)c2c1` [Compound 7, 2-[2-(3-hydroxypropylamino)-4,6-dimethyl-benzoimidazol-1-ylmethyl]-6-methyl-pyridin-3-ol], the EC50 is 158 nM.

In the case of `Cc1cc(C)c2nc(Nc3ccc(CN)cc3)n(Cc3nc(C)ccc3O)c2c1` [Compound 9, 2-[2-(4-aminomethyl-phenylamino)-4,6-dimethyl-benzoimidazol-1-ylmethyl]-6-methyl-pyridin-3-ol], the EC50 is 251 nM.

In the case of `Cc1cc(C)c2nc(NCC(O)CO)n(Cc3nc(C)ccc3O)c2c1` (stereo not drawn) [Compound 4, 3-[1-(3-hydroxy-6-methyl-pyridin-2-ylmethyl)-4,6-dimethyl-1H-benzoimidazol-2-ylamino]-propane-1,2-diol], the concentration giving a half-maximal response (EC50) is 39.8 nM.

As for `Cc1cc(C)c2nc(NCCCN3CCCCC3)n(Cc3nc(C)ccc3O)c2c1` [Compound 1, 2-[4,6-dimethyl-2-(3-piperidin-1-yl-propylamino)-benzoimidazol-1-ylmethyl]-6-methyl-pyridin-3-ol], the EC50 is 20 nM.

Consider `Cc1cc(C)c2nc(NCCC(N)=O)n(Cc3nc(C)ccc3O)c2c1` [Compound 8, 3-[1-(3-hydroxy-6-methyl-pyridin-2-ylmethyl)-4,6-dimethyl-1H-benzoimidazol-2-ylamino]-propionamide], for which the 50% effective concentration (EC50) is 158 nM.

For `CCOC(=O)CCNc1nc2c(C)cc(C)cc2n1Cc1nc(C)ccc1O` [Compound 12, 3-[1-(3-hydroxy-6-methylpyridin-2-ylmethyl)-4,6-dimethyl-1H-benzoimidazol-2-ylamino]-propionic acid ethyl ester], the EC50 is 3160 nM.

System in another data set: not given
Test: not given
Conditions: not given
For orientation: melting point means the temperature of the solid-liquid transition. For the molecule `Cc1cc(C)c2nc(NCCCO)n(Cc3nc(C)ccc3O)c2c1` (as salt: salt) [Compound 7, 2-[2-(3-hydroxypropylamino)-4,6-dimethyl-benzoimidazol-1-ylmethyl]-6-methyl-pyridin-3-ol], the melting point came to 170 °C.

In turn, `Cc1cc(C)c2nc(NCCC(N)=O)n(Cc3nc(C)ccc3O)c2c1` (as salt: salt) [Compound 8, 3-[1-(3-hydroxy-6-methyl-pyridin-2-ylmethyl)-4,6-dimethyl-1H-benzoimidazol-2-ylamino]-propionamide] showed a melting point of 229 °C.

`Cc1cc(C)c2nc(NCCCN3CCCCC3)n(Cc3nc(C)ccc3O)c2c1` (as salt: salt) [Compound 1, 2-[4,6-dimethyl-2-(3-piperidin-1-yl-propylamino)-benzoimidazol-1-ylmethyl]-6-methyl-pyridin-3-ol]: the melting point is > 260 °C.

In turn, `Cc1cc(C)c2nc(Nc3ccc(CN)cc3)n(Cc3nc(C)ccc3O)c2c1` (as salt: salt) [Compound 9, 2-[2-(4-aminomethyl-phenylamino)-4,6-dimethyl-benzoimidazol-1-ylmethyl]-6-methyl-pyridin-3-ol] returned a melting point of 255 °C.

For `Cc1cc(C)c2nc(NCC(O)CO)n(Cc3nc(C)ccc3O)c2c1` (stereo not drawn) (as salt: salt) [Compound 4, 3-[1-(3-hydroxy-6-methyl-pyridin-2-ylmethyl)-4,6-dimethyl-1H-benzoimidazol-2-ylamino]-propane-1,2-diol], the melting point turned out to be 205 °C.

`CCOC(=O)CCNc1nc2c(C)cc(C)cc2n1Cc1nc(C)ccc1O` (as salt: salt) [Compound 12, 3-[1-(3-hydroxy-6-methylpyridin-2-ylmethyl)-4,6-dimethyl-1H-benzoimidazol-2-ylamino]-propionic acid ethyl ester] gave a melting point of 180 °C.
